According to PMC3734263, “Fatty Acid Amide Hydrolase-Dependent Generation of Antinociceptive Drug Metabolites Acting on TRPV1 in the Brain” (PLoS ONE, 2013):

Legend:
[1] = Contents of amines and lipid metabolites in blood and brain after i.p. injection in mice (LC-MS/MS); format: in vivo, mouse; details: mouse
Description: Twenty min after drug administration, the animals were anesthetized by CO2 (rats) or isoflurane (mice) inhalation and decapitated. The brain was removed from the skull and blood was collected in test tubes, containing 60 µl buffered citrate, and the tissues snap frozen in liquid nitrogen before storage at −70°C.
(§1) The whole brain was homogenized in ice-cold 10 mM Tris buffer (ml/g tissue) at pH 7.6. The buffer solution contained 1 mM EDTA, 0.3 mM ascorbic acid and 10 µM methylarachidonylfluorophosphonate (MAFP) to prevent degradation of AM404, arvanil, olvanil, anandamide and 2-arachidonoylglycerol. Aliquots (200 µl) of blood and homogenates were precipitated with 1 ml ice-cold acetone, containing AM404-D4 (5 nM) or anandamide-D8 (100 nM) as internal standard. After centrifugation at 25,200 g for 30 min at 4°C, the supernatants were collected in polypropylene tubes and vacuum evaporated. The protein content of the pellet was determined with Coomassie protein assay (Pierce; Illinois, USA), using bovine serum albumin as standard. […] Samples were analyzed on a Waters Aquity UPLC system coupled to a Sciex 5500 tandem mass spectrometer (LC-MS/MS; AB Sciex; Massachusetts, USA) or a Perkin Elmer 200 HPLC system coupled to an API 3000 tandem mass spectrometer (LC-MS-MS; Applied Biosystems/MDS-SCIEX).
(§2) Quantification of AM404, HPODA, arvanil and olvanil. Samples were analyzed on a Waters Aquity UPLC system coupled to a Sciex 5500 tandem mass spectrometer. Sample aliquots of 5 µl were injected into an Acquity UPLC BEH C18 column (100 × 2 mm, 1.7 µm; Waters) held at 50°C. All mobile phases were water-acetonitrile gradients, containing 0.1% formic acid and using a flow rate of 400 µl/min. The acetonitrile content was initially 30%, then increased linearly to 100% over 7 min and kept at this level for 4 min, followed by an equilibration period at 30% for 2 min. The electrospray interface was operating in the positive ion mode at 550°C and the ion spray voltage was set to 5000 volts. The mass transitions (m/z) used were the following: 396.2/110.1 for AM404, 374.2/110.0 for HPODA, 400.2/114.0 for AM404-D4, 440.3/137.1 for arvanil and 418.3/137.1 for olvanil. The declustering potentials were between 96 and 130 volts and the collision energies between 25 and 41 volts.
Quantification of 4-aminophenol and HMBA. Sample aliquots of 5 µl were injected into a Hypercarb column (50 × 2.1 mm; Thermo). All mobile phases were water-acetonitrile gradients, containing 0.1% formic acid. The acetonitrile content was initially 2%, then increased linearly to […] over 5 min and then kept at 100% for 1 min, followed by an equilibration period at 2% for 1.5 min. The electrospray ion source was set at 550°C and used in the positive ion mode with an ion spray voltage of 5000. […] HMBA loses the amino group already in the source of the MS and therefore the mass transition used was 137.0/94.0. The declustering potentials were 100 and 90 volts and the collision energies 21 and 29 volts. No internal standard was used for these analyses.
The contents of the compounds were expressed either in moles or as normalized peak areas (nPA) and related to the protein content in the samples. The nPA was obtained by dividing the peak area of the analyte with the peak area for the internal standard in the same sample. The detection limits were calculated as the concentrations corresponding to three times the standard deviation of the blanks. When levels were below detection limit, numerical values of half the detection limit were used in the calculations.

[2] = system: mice; assay: Spontaneous locomotor activity in actimetry boxes; format: in vivo, mouse; details: 10 min before test
Description: Mice were placed in actimetry boxes (Actisystem; Apelex, France) and spontaneous motor activity was assessed by determining the number of crossings of light beams during 15 min.

[3] = system: mice; assay: Formalin test, mouse; format: in vivo; details: for formalin test phases: HMBA 100 mg/kg
Description: (§3) The animals received an intraplantar injection of a 2.5% formalin solution (50 µl rat, 25 µl mouse) into a hind paw. The time spent biting and licking of the injected paw was monitored during the two typical phases of the nociceptive response (phase I: 0–5 min; phase II: 20–40 min in rats or 15–40 min in mice).

[4] = system: mice; assay: von Frey filament test, mouse; format: in vivo; details: 30 mg/kg i.p.
From the text: Calibrated von Frey filaments (0.0045–5.4950 g) were used to induce light noxious mechanical stimulation in mice. Tests were commenced after one hour of habituation. Filaments of increasing stiffness were applied five times perpendicular to the plantar surface of the hindpaw and pressed until bending. The first filament that evoked at least three consecutive responses was assigned as the threshold (cut-off 2 g).

[5] = system: mice; assay: Tail immersion test, mouse; format: in vivo; details: 30 mg/kg i.p.
Description: Tails of mice were submerged in a hot water bath (46°C) and the withdrawal latency recorded (cut-off 15 s). The mean of four baseline values were determined before drug administration.

[6] = system: rats; assay: Formalin test, rat; format: in vivo; details: 4-aminophenol 10, 30 and 100 mg/kg i.p.
Description: as §3

[7] = Global brain levels of endocannabinoids in the rat after 4-aminophenol; format: in vivo; details: 4-aminophenol 100 mg/kg i.p.; 15, 30, 45 and 60 min
Description: as §1
Quantification of anandamide and 2-arachidonoylglycerol. Anandamide (m/z 348.2/62.0), anandamide-D8 (m/z 356.4/63.0) and 2-arachidonoylglycerol (m/z 379.2/287.0) were determined as previously described. Since 2-arachidonoylglycerol is non-enzymatically converted to 1-arachidonoylglycerol, the content of 2-arachidonoylglycerol was estimated as the sum of these lipids. […]

[8] = system: rats; details: 4-aminophenol three doses, data not shown
[9] = system: rodents; details: doses not far from those eliciting antinociception in rodents; cited from earlier work
[10] = system: rats; assay: Paw pressure test, rat
Description: The behavioural tests were performed in a quiet room and evaluated by a single investigator in a blinded manner. Treatments and/or genotypes were randomized in blocks and the number of animals in each block corresponded to the number of treatments and/or genotypes compared. […] Each animal was exposed to only one treatment.
The rats were submitted to the paw pressure test, using an Ugo Basile analgesy meter with a probe tip diameter of 1 mm (Bioseb, France). Nociceptive thresholds, expressed in grams (g), were measured by applying an increasing pressure to the right hind paw until a squeak (vocalization thresholds) was obtained (cut-off 750 g). Two consecutive stable vocalisation threshold values were first obtained (baseline).
Intrathecal injections were performed on anaesthetised rats held in one hand by the pelvic girdle. A 25 gauge 1 inch needle connected to a 25 µl Hamilton syringe was then inserted into the subarachnoidal space between lumbar vertebrae L5 and L6 until a tail flick was elicited. The syringe was held in position for few seconds after the injection of a volume of 10 µl [49]. All injections were performed under isoflurane anaesthesia (4% induction, 2% maintenance).

[11] = Formation of arvanil and olvanil in brain homogenates incubated with HMBA; format: in vitro ADME, rat; details: HMBA 100 µM, 60 min
Description: Rat brain homogenate were prepared, as previously described. Brains were homogenized in Tris buffer (10 mM, pH 7.6), containing ethylenediaminetetraacetic acid (EDTA; 1 mM), at volumes of 5–10 ml/g tissue. Experiments were carried out on aliquots of 200 µl homogenate at 37°C as further explained in the text. The reactions were stopped by adding 1 ml ice-cold acetone, containing 1 µM [^2H8]-anandamide. The samples were kept on ice until the acetone phase was vacuum evaporated.
as §2, with “The declustering potentials were between 96 and 130 volts and the collision energies between 25 and 41 volts.” left out

[12] = 20 min after 4-AP 30 mg/kg i.p.
[13] = 20 min after 4-AP 100 mg/kg i.p.

For Nc1ccc(O)cc1 [4-aminophenol], the “quotient between brain levels of 4-aminophenol and AM404” value ([1]; 4-aminophenol 30 mg/kg i.p.) was 223, the “quotient between brain levels of 4-aminophenol and HPODA” value ([1]; 4-aminophenol 30 mg/kg i.p.) was 951 and the “quotient between brain levels of 4-aminophenol and AM404” value ([1]; 4-aminophenol 100 mg/kg i.p.) was 1,547. For the same molecule, the “quotient between brain levels of 4-aminophenol and HPODA” value ([1]; 4-aminophenol 100 mg/kg i.p.) was 9,376, the “Blood 4-AP” value [1, 12] was 283 ± 15 nmol/g and the “Brain 4-AP” value [1, 12] was 91 nmol/g. The “Brain 4-AP” value ([1]; 20 min after 4-AP 30 mg/kg i.p., listed as 4-AP) was 91 ± 12 nmol/g, the “Blood 4-AP” value [1, 13] was 878 ± 157 nmol/g and the “Brain 4-AP” value [1, 13] was 7470 ± 1720 nmol/g. For the same molecule, the locomotor activity ([2]; 4-aminophenol 10, 30 and 100 mg/kg i.p.) was “reduced locomotor activity after the highest dose”, the “licking time in formalin test” value ([3]; 30 mg/kg i.p., FAAH+/+ mice) was “reduced the licking time during the first and second phases” and the “antinociception in formalin test” value ([3]; 30 mg/kg i.p., FAAH−/− mice) was “failed to produce antinociception”. For the same molecule, the “antinociceptive activity in formalin test” value ([3]; 30 mg/kg i.p., TRPV1−/− mice) was “lost”, the “withdrawal threshold in von Frey test” value ([4]; FAAH+/+ mice) was “increased the withdrawal threshold” and the “antinociception in von Frey test” value ([4]; FAAH−/− mice) was “failed to produce antinociception”. For the same molecule, the “antinociceptive activity in von Frey test” value ([4]; TRPV1−/− mice) was “lost”, the “latency time in tail immersion test” value ([5]; FAAH+/+ mice) was “increased” and the “antinociception in tail immersion test” value ([5]; FAAH−/− mice) was “failed to produce antinociception”. The “antinociceptive activity in tail immersion test” value ([5]; TRPV1−/− mice) was “lost”, the “licking time in rat formalin test” value [6] was “Only the highest dose reduced both phases” and the “global levels of the endocannabinoids anandamide and 2-arachidonoylglycerol in the rat brain” value [7] was “did not affect the global levels”. For the same molecule, the locomotor activity [8] was “tolerated all three doses”, the “nephrotoxic effect after a single exposure” value [9] was “renal tubular necrosis” and the “withdrawal threshold in rat paw pressure test” value ([10]; 100 mg/kg i.p., 15 and 30 min after administration) was “increased the withdrawal threshold”. For the same molecule, the “withdrawal threshold in rat paw pressure test” value ([10]; intermediate dose 30 mg/kg i.p.) was “effective only at 15 min” and the “withdrawal threshold in rat paw pressure test” value ([10]; low dose 10 mg/kg i.p.) was “inactive”.

With COc1cc(CN)ccc1O [HMBA, 4-hydroxy-3-methoxybenzylamine] the “formation of N-acylamines in brain homogenates” value [11] was “leads to the formation of arvanil and olvanil”, the locomotor activity ([2]; HMBA 100, 200 and 300 mg/kg i.p.) was “only the dose of 100 mg/kg failed to affect locomotion” and the formalin test phases ([3]; FAAH−/− mice) was “affected none of these phases”. For the same molecule, the formalin test phases ([3]; wild-type mice) was “inhibited both the first and second phases”.
